Source: publication PMC9738727, “Purification and Characterization of Novel Anti-MRSA Peptides Produced by Brevibacillus sp. SPR-20” (Molecules, 2022)
≈ marks a conversion by molar mass, not a printed value. Where “and” joins values, the source holds several entries; their conditions need not be identical. Identical values can stand only once. Like-named read-outs stand apart in the source and are kept apart here. Ends that are not written are not given here.

What was measured:
MRSA isolate 1096 = assay: microbe, parasite or virus in culture; format: cell-based, Staphylococcus aureus
Method: (§1) The MIC and MBC of the purified peptides from SPR-20 were determined by broth microdilution assay following a standard guideline. S. aureus TISTR 517 and MRSA isolate 142, 1096, and 2468 as bacterial strains were cultured in MH agar at 37 °C for 18 h. […] The cells were then diluted to 5 × 10^6 CFU/mL using cation-adjusted Mueller Hinton broth (CAMHB). The diluted cell suspension (10 μL) was transferred to each well of a 96-well plate. The purified peptide in the total volume of 100 µL was added to each well to obtain the final concentrations between 0.5 and 64 µg/mL. The standard antibiotics (vancomycin and cefoxitin) (Sigma-Aldrich Co., St. Louis, MO, USA) and antibiotic-free samples were the positive and negative controls, respectively. CAMHB without tested bacteria was used as a blank. The 96-well plates were incubated at 37 °C for 24 h, and the experiment was performed in triplicate for each strain. […] Subsequently, 100 µL of each dilution was spread on MH agar and then incubated at 37 °C for 24 h.

S. aureus TISTR 517 [1] = assay: microbe, parasite or virus in culture; format: cell-based, Staphylococcus aureus
Method: as §1

MRSA isolate 142 = assay: microbe, parasite or virus in culture; format: cell-based, Staphylococcus aureus
Method: as §1

MRSA isolate 2468 [2] = assay: microbe, parasite or virus in culture; format: cell-based, Staphylococcus aureus
Method: as §1

[3] = cited from earlier work
Method: With the highest activity, P1 was selected for further study on its stability and mechanism of action. P1 was thermostable as it maintained nearly all activity after exposure to 100 °C or autoclave conditions. The short-chain peptide with substantial β-strand and disordered structures was an important characteristic of P1. This peptide might be refolded to active conformation after heat treatment that conferred good thermal stability. Similarly, acidocin LCHV (11 residues) produced by Lactobacillus acidophilus n.v. Er 317/402 Narine was stable at 130 °C for 90 min [27]. […] The enzymatic stability of P1 was caused by the absence of aromatic amino acids, which are the specific cleavage sites of proteinase K and α-chymotrypsin. The presence of one lysine at the core sequence of P1 might lessen the sensitivity of trypsin [29].

[4] = tested on: S. aureus TISTR 517 and MRSA strains; assay: microbe, parasite or virus in culture; format: cell-based, Staphylococcus aureus; conditions: Staphylococcus aureus
Method: as §1

S. aureus TISTR 517 [5] = assay: microbe, parasite or virus in culture; format: cell-based, Staphylococcus aureus; conditions: Staphylococcus aureus, TISTR517, 18 h, read-out: Corrected Zone of Inhibition
Method: (§2) The antimicrobial activity was measured by an agar well diffusion test with some modified methods. In brief, single colonies of the tested strains were suspended in 0.85% NaCl, and then the OD at 625 nm was adjusted to 0.1. The cell suspensions were spread on MH agar, and the tested samples (100 μL) were introduced into each well before incubation at 37 °C for 24 h. Each experiment was performed in three independent replicates, and the inhibition zone was measured and expressed as mean ± SD.
(§3) The agar well diffusion test was performed in triplicate for potency determination, using S. aureus TISTR 517 and MRSA isolate 2468 as the tested bacteria. […] The remaining standard and sample solutions were transferred to the other 3 wells. The plates were incubated at 37 °C for 18 h.

MRSA isolate 2468 [6] = assay: microbe, parasite or virus in culture; format: cell-based, Staphylococcus aureus; conditions: Staphylococcus aureus, 18 h, read-out: Corrected Zone of Inhibition
Method: as §2, §3

[7] = Staphylococcus aureus, broth microdilution, CAMHB, 37 °C, 24 h, triplicate, read-out: MIC
[8] = Staphylococcus aureus, TISTR517, 24 h

VVLNLVVKLLKYAK [Peptide P5]
MBC (MRSA isolate 1096; isolate 1096, 24 h): 32 µg/mL
MIC (MRSA isolate 1096; isolate 1096, 24 h): 32 µg/mL
MBC (S. aureus TISTR 517 [1]; TISTR 517, 24 h): 32 µg/mL
MIC (S. aureus TISTR 517 [1]; TISTR 517, 24 h): 32 µg/mL
MBC (MRSA isolate 142; isolate 142, 24 h): 32 µg/mL
MIC (MRSA isolate 142; isolate 142, 24 h): 32 µg/mL
MBC (MRSA isolate 2468 [2]; isolate 2468, 24 h): 32 µg/mL
MIC (MRSA isolate 2468 [2]; isolate 2468, 24 h): 32 µg/mL

XVXVVVKVLKYLX [Brevilaterin V, antimicrobial peptide from Brevibacillus laterosporus S62-9]
initial activity retained after heating ([3]; 100 °C for 2 h): 99%
remaining activity with pepsin, trypsin, and proteinase K [3]: more than 97%

VVVNLLVKVLKYAK [Peptide P4]
MBC (MRSA isolate 1096; isolate 1096, 24 h): 16 µg/mL
MIC (MRSA isolate 1096; isolate 1096, 24 h): 8 µg/mL
MBC (S. aureus TISTR 517 [1]; TISTR 517, 24 h): 8 µg/mL
MIC (S. aureus TISTR 517 [1]; TISTR 517, 24 h): 8 µg/mL
MBC (MRSA isolate 142; isolate 142, 24 h): 16 µg/mL
MIC (MRSA isolate 142; isolate 142, 24 h): 8 µg/mL
MBC (MRSA isolate 2468 [2]; isolate 2468, 24 h): 16 µg/mL
MIC (MRSA isolate 2468 [2]; isolate 2468, 24 h): 8 µg/mL

VVLNLLVKVLKYGK [Peptide P3]
MBC (MRSA isolate 1096; isolate 1096, 24 h): 8 µg/mL
MIC (MRSA isolate 1096; isolate 1096, 24 h): 4 µg/mL
MBC (S. aureus TISTR 517 [1]; TISTR 517, 24 h): 4 µg/mL
MIC (S. aureus TISTR 517 [1]; TISTR 517, 24 h): 4 µg/mL
MBC (MRSA isolate 142; isolate 142, 24 h): 8 µg/mL
MIC (MRSA isolate 142; isolate 142, 24 h): 4 µg/mL
MBC (MRSA isolate 2468 [2]; isolate 2468, 24 h): 8 µg/mL
MIC (MRSA isolate 2468 [2]; isolate 2468, 24 h): 4 µg/mL

CO[C@@]1(NC(=O)Cc2cccs2)C(=O)N2C(C(=O)O)=C(COC(N)=O)CS[C@@H]21 [Cefoxitin, cefoxitin, reference compound]
MIC ([4]; MRSA strains only, read-out: MIC): > 64 µg/mL
MIC (MRSA isolate 1096; [7]): > 64 µg/mL
MIC (S. aureus TISTR 517 [1]; Staphylococcus aureus, TISTR517, broth microdilution, CAMHB, 37 °C, 24 h, triplicate, read-out: MIC): 2 µg/mL (≈ 4.68 µM)
MBC (S. aureus TISTR 517 [1]; Staphylococcus aureus, TISTR517, dilutions spread on MH agar, 37 °C, 24 h, no colony, read-out: MBC): 2 µg/mL (≈ 4.68 µM)
MIC (S. aureus TISTR 517 [1]; broth microdilution, CAMHB, 37 °C, 24 h, triplicate): 2 µg/mL (≈ 4.68 µM)
MIC (MRSA isolate 142; [7]): > 64 µg/mL
MIC (MRSA isolate 2468 [2]; [7]): > 64 µg/mL

NVGVLNPPPLV [Acidocin LCHV, antimicrobial peptide produced by Lactobacillus acidophilus n.v; Er 317/402 Narine]
thermal stability ([3]; 130 °C for 90 min): stable
effect of trypsin, pepsin, and proteinase K on activity ([3]; according to a previous study): decreased the activity

VVMNLLVKVLKYVV [Peptide P2]
MBC (MRSA isolate 1096; isolate 1096, 24 h): 64 µg/mL
MIC (MRSA isolate 1096; isolate 1096, 24 h): 8 µg/mL
MBC (S. aureus TISTR 517 [1]; TISTR 517, 24 h): 16 µg/mL
MIC (S. aureus TISTR 517 [1]; TISTR 517, 24 h): 8 µg/mL
MBC (MRSA isolate 142; isolate 142, 24 h): 64 µg/mL
MIC (MRSA isolate 142; isolate 142, 24 h): 8 µg/mL
MBC (MRSA isolate 2468 [2]; isolate 2468, 24 h): 64 µg/mL
MIC (MRSA isolate 2468 [2]; isolate 2468, 24 h): 8 µg/mL

CN[C@H](CC(C)C)C(=O)N[C@H]1C(=O)N[C@@H](CC(N)=O)C(=O)N[C@H]2C(=O)N[C@H]3C(=O)N[C@H](C(=O)N[C@H](C(=O)O)c4cc(O)cc(O)c4-c4cc3ccc4O)[C@H](O)c3ccc(c(Cl)c3)Oc3cc2cc(c3O[C@@H]2O[C@H](CO)[C@@H](O)[C@H](O)[C@H]2O[C@H]2C[C@](C)(N)[C@H](O)[C@H](C)O2)Oc2ccc(cc2Cl)[C@H]1O [Vancomycin, vancomycin]
MIC [4]: 2 µg/mL and 1.38 µM
MBC (MRSA isolate 1096; Staphylococcus aureus, 24 h): 2 µg/mL (≈ 1.38 µM)
MIC (MRSA isolate 1096; Staphylococcus aureus, 24 h): 2 µg/mL (≈ 1.38 µM)
MBC (S. aureus TISTR 517 [1]; [8]): 2 µg/mL (≈ 1.38 µM)
MIC (S. aureus TISTR 517 [1]; [8]): 2 µg/mL (≈ 1.38 µM)
MBC (MRSA isolate 142; Staphylococcus aureus, 24 h): 2 µg/mL (≈ 1.38 µM)
MIC (MRSA isolate 142; Staphylococcus aureus, 24 h): 2 µg/mL (≈ 1.38 µM)
MBC (MRSA isolate 2468 [2]; Staphylococcus aureus, 24 h): 2 µg/mL (≈ 1.38 µM)
MIC (MRSA isolate 2468 [2]; Staphylococcus aureus, 24 h): 2 µg/mL (≈ 1.38 µM)
zone of inhibition at 50 µg/mL (S. aureus TISTR 517 [5]): 18.8 ± 0.61 mm
zone of inhibition at 75 µg/mL (S. aureus TISTR 517 [5]): 19.5 ± 0.52 mm
zone of inhibition at 100 µg/mL (S. aureus TISTR 517 [5]): 20.3 ± 0.41 mm
zone of inhibition at 125 µg/mL (S. aureus TISTR 517 [5]): 21.1 ± 0.41 mm
zone of inhibition at 150 µg/mL (S. aureus TISTR 517 [5]): 21.3 ± 0.36 mm
zone of inhibition at 50 µg/mL (MRSA isolate 2468 [6]): 20.1 ± 0.29 mm
zone of inhibition at 75 µg/mL (MRSA isolate 2468 [6]): 21.2 ± 0.76 mm
zone of inhibition at 100 µg/mL (MRSA isolate 2468 [6]): 22 ± 0.57 mm
zone of inhibition at 125 µg/mL (MRSA isolate 2468 [6]): 22.7 ± 0.61 mm
zone of inhibition at 150 µg/mL (MRSA isolate 2468 [6]): 23.36 ± 0.21 mm
